Results on two molecules are retold here after patent publication US6977269B1, “Method of improving animal tissue quality” (Pioneer Hi-Bred International, Inc, priority 2001, dated 2005).

Structures are written as SMILES. Like-named read-outs stand apart in the source and are kept apart here. Marks after values point to notes of the source that are not given here.

In one series the test system is lambs. In words: Growth performance in lambs. The format is in vivo. The settings on record: for Interim BW: after 20 days on test; for Final BW: after 43 days on test. The text has this:
The effects of diet supplementation with alpha-tocopherol and gamma-tocopherol on tissue oxidation and storage life of fresh meat from lambs fed a diet supplemented with tocopherol was studied. A total of 42 weaned Western white-faced lambs (4 ewes, 38 males) were used in a feeding trial. The lambs were housed two per pen in a slatted floor barn and initially fed chopped oat hay, then gradually acclimated to a beet pulp-based basal diet. The basal ration consisted of 82.2% beet pulp pellets, 9.5% chopped oat hay, 6.0% liquid molasses, 1.5% soybean meal, 0.8% mineralized salt, and monensin (30 g/ton). All lambs were given ad libitum access to the basal diet.
The basal diet was fed for 60 days and on days 61 and 62, lambs were weighed to calculate initial body weight. Lambs were blocked by weight, without regard to gender, and randomly assigned within weight blocks to pens, and pens were randomly assigned to dietary treatments (14 lambs/treatment).
Interim and final weights were taken on two consecutive days after 20 and 43 days on test, respectively, to calculate average daily weight gain (ADG) and feed conversion. On the 45th day on test, the lambs were transported to a commercial packing plant and slaughtered the following morning. Standard carcass data were collected.
The fourth column is standard error of measurement (SEM). The last two columns are P values for the statistical comparison of the alpha group versus the gamma group, and the control group versus the alpha and gamma groups.

The conditions of series [1]: male, sheep (lambs), in vivo.
The subject of a further series is iron-loaded rats. The conditions noted are these: ability to inhibit lipid peroxidation; cited from earlier work.
A further series in a line: in vivo. The conditions noted are these: male, sheep (lambs).
Series [2] can be described thus: Lamb loin antioxidant concentrations.

As for `Cc1c(O)cc2c(c1C)O[C@](C)(CCC[C@H](C)CCC[C@H](C)CCCC(C)C)CC2` [Gamma-tocopherol, gamma-tocopherol], in the series on lambs (1st 20 Days), the “Gain: feed” value is 132.6 g/kg and the Intake worked out at 1.35 kg/day. In the series with lambs (1st 20 Days, 500 IU/kg/day), this molecule had an ADG of 173.5 g/day. Besides, in the series with lambs (2nd 23 Days), the ADG is listed as 264.0^a g/d, the “Gain: feed” value was 187.2^b g/kg and the Intake came out at 1.45 kg/day. In the series with lambs (2nd 23 Days, listed as gamma-tocopherol), the ADG was 264.0 g/day. Besides, in the series on lambs (Overall), the ADG was 221.9 g/day, the “Gain: feed” value was 162.8^b g/kg and the Intake worked out at 1.40 kg/day. Also, in the series on lambs, the “Interim BW” value is recorded as 53.0 kg and the “Final BW” value is recorded as 59.1 kg. Further, in series [1], the Alpha-Tocopherol in loin was 3.22^b μg/g, the “Increase of tissue gamma-tocopherol level over control treatment” value is on record as “over 35 times” and the “Total antioxidant in loin” value is given as 9.57^a μg/g. For the same molecule, in series [1] (1 day), the Alpha-Tocopherol in loin was 3.47^a μg/g and the “Total antioxidant in loin” value is reported as 10.6^a μg/g. Moreover, in series [1] (6 day), the Alpha-Tocopherol in loin is 2.87^b μg/g and the “Total antioxidant in loin” value is 8.47^a μg/g. In addition, the “antioxidant efficacy relative to alpha-tocopherol on a per unit mass basis” value in the series on iron-loaded rats is “about one-third”. In the series “in vivo”, this molecule registered a concentration at 1 day of 7180 ng/g and a concentration at 6 day of 5570 ng/g.

`Cc1c(C)c2c(c(C)c1O)CC[C@@](C)(CCC[C@H](C)CCC[C@H](C)CCCC(C)C)O2` [Alpha-tocopherol, alpha-tocopherol, reference compound]: the “Gain: feed” value is 124.2 g/kg with lambs (1st 20 Days), 127.1^a g/kg with lambs (2nd 23 Days) and 126.0^a g/kg in the series with lambs (Overall). The Intake worked out at 1.43 kg/day in the series with lambs (1st 20 Days), 1.54 kg/day in the series with lambs (2nd 23 Days) and 1.49 kg/day with lambs (Overall). For the same molecule, the ADG in the series with lambs (1st 20 Days, 500 IU/kg/day) was 164.1 g/day; in the series on lambs (2nd 23 Days) it was 190.9^b g/d; with lambs (2nd 23 Days, listed as alpha-tocopherol), 190.9 g/day; in the series with lambs (Overall), 182.3 g/day. Further, the “Interim BW” value in the series with lambs is 52.1 kg. Also, the “Final BW” value in the series on lambs came out at 56.6 kg. For the same molecule, the Alpha-Tocopherol in loin is listed as 3.83^a μg/g in series [2] (Day 1), 6.22^a μg/g in series [2] (Day 6) and 5.04^a μg/g in series [2] (Overall). For the same molecule, the Gamma-Tocopherol in loin in series [2] (Day 1) was 0.30^b μg/g; in series [2] (Day 6) it was 0.43^b μg/g; in series [2] (Overall) it was 0.37^b μg/g. For the same molecule, the “Total antioxidant in loin” value in series [2] (Day 1) is 4.13^b μg/g; in series [2] (Day 6), 6.70^b μg/g; in series [2] (Overall), 5.41^b μg/g.
